Assay [1] deals with adult rat primary β-cells. The assay can be described thus: Rat β-cell proliferation assay, EdU incorporation, dissociated islets. It counts as cell-based. As to conditions: for β-cell proliferation in combination with GNF4877: sub-EC50 GNF4877, Figs 7a,d (human and rat β-cells); for rat β-cell proliferation (EdU incorporation), in words: dispersed rat islets; for primary rat β-cell proliferation, combination of Chiron99021 with TG003: 4 days. The protocol: (§1) Rat or human β-cell proliferation assays were performed using dissociated primary rat or human islets. Islets were treated with the indicated compounds in the presence of EdU for 4 days before fixing and staining. […] For intact islet assays, primary human islets were treated for 7 or 8 days (as indicated in the legend). Rat dissociated islets were cultured in RPMI medium containing 10% FBS and human dissociated islets were cultured in PIM-S media (Prodo laboratories) with 10% human […].

Assay [2] concerns β-cells from dissociated adult primary human islets. The assay can be described thus: Human β-cell proliferation assay, EdU incorporation, dissociated islets. Format: cell-based. The note with it: for human β-cell proliferation (EdU incorporation), in words: dispersed human islets; for effect of co-treatment on human β-cell proliferation induced by GNF4877: GNF4877 2 μM, FK506 12 nM to 1 μM. Here is the method: as §1

The target in a further assay is T1, Dyrk1a (Homo sapiens, UniProt Q13627).
T1 construct: purchased Ambit KINOMEscan
Briefly: Dyrk1a kinase activity, biochemical assay.

In assay [3] the test system is β-catenin nuclear localization in primary rat islets. The assay can be described thus: β-Catenin nuclear translocation. It counts as cell-based. Here is the method:
At the end of the treatment, cells were fixed with 4% paraformaldehyde, blocked and permeabilized, and stained by standard immunofluorescence techniques for β-catenin (Cell signaling, #9562L; dilution 1:500), NFATc1 (Santa Cruz, rabbit polyclonal, SC-7294; dilution 1:200) or NFAT3c (Santa Cruz, SC-8321; dilution 1:200) and nuclear DNA was stained with DAPI (Molecular Probes; dilution 1:1,000). EdU incorporation was measured by click reaction with AlexaFluor-647-azide (Invitrogen). Plates were imaged with confocal microscope and analysed by Metamorph (Molecular Devices).

A further assay deals with Gsk3b (Homo sapiens, UniProt P49841). Briefly: Gsk3b biochemical kinase assay.
Another assay concerns rat islet cells. The assay can be described thus: eFluor670 vital dye dilution (cell division). The note with it: 5 days treatment. It counts as cell-based. The text has this: The extent of proliferation of human islet cells was too low to be detected with this method, consistent with the lower level of EdU incorporation induced in human islets.

pIC50: −log10 of the molar value. “Also recorded” adds a separate entry of the source.

Gsk3b, sequence (P49841 whole entry, species assumed): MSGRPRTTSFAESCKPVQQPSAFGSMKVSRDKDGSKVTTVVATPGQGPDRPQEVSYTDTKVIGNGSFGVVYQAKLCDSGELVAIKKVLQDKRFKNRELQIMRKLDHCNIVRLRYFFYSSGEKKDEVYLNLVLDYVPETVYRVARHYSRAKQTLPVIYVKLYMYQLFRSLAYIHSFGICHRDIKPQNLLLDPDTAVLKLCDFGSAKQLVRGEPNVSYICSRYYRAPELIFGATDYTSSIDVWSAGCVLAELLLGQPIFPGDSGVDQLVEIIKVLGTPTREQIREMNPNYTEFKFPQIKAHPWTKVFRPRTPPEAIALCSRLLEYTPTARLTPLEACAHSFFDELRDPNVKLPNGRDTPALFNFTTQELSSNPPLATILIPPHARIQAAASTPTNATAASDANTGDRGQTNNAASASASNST

As for `COc1ccc(Cl)cc1C(=O)NCCc1ccc(S(=O)(=O)NC(=O)NC2CCCCC2)cc1` [glibenclamide], the “β-cell proliferation in combination with GNF4877” value in assay [1] is “showed additive activity with GNF4877”.
On the same count and under the same terms, as for `COC(=O)C1=C(C)NC(C)=C([N+](=O)[O-])C1c1ccccc1C(F)(F)F` (stereo not drawn) [Bay K8644], the entry is “showed additive activity with GNF4877”.
As for `Nc1ncc(-c2ccccc2)nc1C(=O)Nc1ccccc1N1CCC(C(=O)O)CC1` [GNF6324], the “human β-cell proliferation (EdU incorporation), in words” value (“human β-cell proliferation … in words” for short) in assay [2] was “completely inactive”. For the same molecule, the pIC50 – broadly, the IC50 on a negative log10 scale, so that one unit is a factor of ten – at Dyrk1a was less than 4.30. Further, the β-catenin nuclear translocation result in assay [3] is given as “capable of inducing nuclear localization of β-catenin”. In addition, in assay [1], the “rat β-cell proliferation (EdU incorporation), in words” value (“rat β-cell proliferation … in words” below) is “completely inactive; also recorded: did not induce EdU incorporation in rat β-cells”. Further, the “potency on Gsk3b, in words” value at Gsk3b is reported as “retained similar potency to GNF7156 on Gsk3b”. The “eFluor670 staining intensity relative to control” value with rat islet cells was “nor cause a decrease in eFluor670 staining”.
`[Cl-].[Li+]` [LiCl]: the “human β-cell proliferation … in words” value in assay [2] is on record as “without any significant effects on human β-cell proliferation”. In assay [1], the “rat β-cell proliferation … in words” value is “significantly lower extent than GNF7156 and GNF4877”.
Turning to `Nc1ncnc2c1c(I)cn2[C@@H]1O[C@H](CO)[C@@H](O)[C@H]1O` [5-IT], the “human β-cell proliferation … in words” value in assay [2] is “induced β-cell proliferation”. The “rat β-cell proliferation … in words” value in assay [1] is recorded as “induced β-cell proliferation”.
As for `O=C1Cc2c([nH]c3ccc(Br)cc23)-c2ncccc2N1` [1-Akp], the “human β-cell proliferation … in words” value in assay [2] is “without any significant effects on human β-cell proliferation”. The “rat β-cell proliferation … in words” value in assay [1] was “significantly lower extent than GNF7156 and GNF4877”.
As to `COc1ccc2c(c1)[nH]c1c(C)nccc12` [harmine], the “human β-cell proliferation … in words” value in assay [2] was “induced β-cell proliferation”. Also, the “rat β-cell proliferation … in words” value in assay [1] is recorded as “induced β-cell proliferation”.
`Cc1cnc(-c2cnc(NCCNc3ccc(C#N)cn3)nc2-c2ccc(Cl)cc2Cl)[nH]1` [Chiron99021]: the “human β-cell proliferation … in words” value in assay [2] is “without any significant effects on human β-cell proliferation”. For the same molecule, in assay [1], the “primary rat β-cell proliferation, combination of Chiron99021 with TG003” value is “additive induction of primary rat β-cell proliferation”; the “rat β-cell proliferation … in words” value was “significantly lower extent than GNF7156 and GNF4877”.
In the case of cyclosporin A [CsA], the “effect of co-treatment on human β-cell proliferation induced by GNF4877” value in assay [2] was “reduced by co-treatment”.
Same read-out and setting: the value for `C=CC[C@@H]1/C=C(\C)C[C@H](C)C[C@H](OC)[C@H]2O[C@@](O)(C(=O)C(=O)N3CCCC[C@H]3C(=O)O[C@H](/C(C)=C/[C@@H]3CC[C@@H](O)[C@H](OC)C3)[C@H](C)[C@@H](O)CC1=O)[C@H](C)C[C@@H]2OC` [FK506] was “reduced by co-treatment”.
Take `CCN1/C(=C/C(C)=O)Sc2ccc(OC)cc21` [TG003]: in assay [2], the “human β-cell proliferation … in words” value is “induced β-cell proliferation”. In addition, in assay [1], the “primary rat β-cell proliferation, combination of Chiron99021 with TG003” value is recorded as “additive induction of primary rat β-cell proliferation” and the “rat β-cell proliferation … in words” value is listed as “induced β-cell proliferation”.

These data come from article PMC4639830, “Inhibition of DYRK1A and GSK3B induces human β-cell proliferation” (Nature Communications, 2015).
